{
  "source": "patent US10183022B2",
  "about": "“Pharmaceutical composition for treating ulcerative colitis” (EA Pharma Co., Ltd., priority 2014, dated 2019)",
  "test_system": "ulcerative colitis patients in an active stage",
  "experiment": "Clinical study, 960 mg orally 3 times a day for 8 weeks: subscore for stool frequency of Mayo score",
  "assay_type": "in vivo, human",
  "design": "Cases by subscore for stool frequency, figure in parentheses: unit not given here",
  "procedure": "The compound of Example 1 or the compound of Comparative Example 1 was orally administered after meals 3 times a day. The number of the given tablets was 8 per administration (i.e., the amount of the compound (1) of Example 1 administered was 960 mg per administration). The administration period was 8 weeks. The compounds were administered until the timing after the breakfast on the day before the assessment day at Week 8.\n[Investigation Timings: Weeks 0, 2, 4, and 8 (or Discontinuation Time)]\nBased on the contents described in the symptom-recording diaries and so on, the investigators or sub-investigators investigated stool frequencies in 3 days immediately before each assessment day. Note that when the endoscopic examination on the large intestine was conducted, the investigation days were set to be the closest three days excluding the day of the endoscopic examination on the large intestine, the following day, and if a pre-treatment was performed for the endoscopic examination on the large intestine, the pre-treatment day.\nThe investigators or sub-investigators investigated the stool frequency per day before the primary disease appeared, which served as a “normal frequency.” An average value (rounded to the nearest whole number) of the stool frequencies of the investigated three days was compared with the “normal frequency,” and scored according to the following criteria.",
  "data": [
    {"smiles": "COC(=O)[C@H](Cc1ccc(-n2c(=O)c3cc(N(C)C)ccc3n(C)c2=O)cc1)NC(=O)c1c(Cl)cccc1Cl", "note": "[Example 1, methyl(2S)-2-(2,6-dichlorobenzamide)-3-{4-[6-(dimethylamino)-1-methyl-2,4-dioxo-1,4-dihydroquinazolin-3(2H)-yl]phenyl}propanoate]", "values": [
      {"measurement": "Cases by subscore for stool frequency, figure in parentheses", "setting": "Week 0, score 0", "value": 3.9},
      {"measurement": "Number of cases by subscore for stool frequency", "setting": "Week 0, score 0", "value": 2},
      {"measurement": "Cases by subscore for stool frequency, figure in parentheses", "setting": "Week 0, score 1", "value": 17.6},
      {"measurement": "Number of cases by subscore for stool frequency", "setting": "Week 0, score 1", "value": 9},
      {"measurement": "Cases by subscore for stool frequency, figure in parentheses", "setting": "Week 0, score 2", "value": 41.2},
      {"measurement": "Number of cases by subscore for stool frequency", "setting": "Week 0, score 2", "value": 21},
      {"measurement": "Cases by subscore for stool frequency, figure in parentheses", "setting": "Week 0, score 3", "value": 37.3},
      {"measurement": "Number of cases by subscore for stool frequency", "setting": "Week 0, score 3", "value": 19},
      {"measurement": "Cases by subscore for stool frequency, figure in parentheses", "setting": "Week 2, score 0", "value": 9.8},
      {"measurement": "Number of cases by subscore for stool frequency", "setting": "Week 2, score 0", "value": 5},
      {"measurement": "Cases by subscore for stool frequency, figure in parentheses", "setting": "Week 2, score 1", "value": 25.5},
      {"measurement": "Number of cases by subscore for stool frequency", "setting": "Week 2, score 1", "value": 13},
      {"measurement": "Cases by subscore for stool frequency, figure in parentheses", "setting": "Week 2, score 2", "value": 49.0},
      {"measurement": "Number of cases by subscore for stool frequency", "setting": "Week 2, score 2", "value": 25},
      {"measurement": "Cases by subscore for stool frequency, figure in parentheses", "setting": "Week 2, score 3", "value": 15.7},
      {"measurement": "Number of cases by subscore for stool frequency", "setting": "Week 2, score 3", "value": 8},
      {"measurement": "Number of cases, cross tabulation of subscore for stool frequency", "setting": "Week 2 score 0, Week 0 score 0", "value": 2},
      {"measurement": "Number of cases, cross tabulation of subscore for stool frequency", "setting": "Week 2 score 0, Week 0 score 1", "value": 1},
      {"measurement": "Number of cases, cross tabulation of subscore for stool frequency", "setting": "Week 2 score 0, Week 0 score 2", "value": 1},
      {"measurement": "Number of cases, cross tabulation of subscore for stool frequency", "setting": "Week 2 score 0, Week 0 score 3", "value": 1},
      {"measurement": "Number of cases, cross tabulation of subscore for stool frequency", "setting": "Week 2 score 1, Week 0 score 0", "value": 0},
      {"measurement": "Number of cases, cross tabulation of subscore for stool frequency", "setting": "Week 2 score 1, Week 0 score 1", "value": 6},
      {"measurement": "Number of cases, cross tabulation of subscore for stool frequency", "setting": "Week 2 score 1, Week 0 score 2", "value": 5},
      {"measurement": "Number of cases, cross tabulation of subscore for stool frequency", "setting": "Week 2 score 1, Week 0 score 3", "value": 2},
      {"measurement": "Number of cases, cross tabulation of subscore for stool frequency", "setting": "Week 2 score 2, Week 0 score 0", "value": 0},
      {"measurement": "Number of cases, cross tabulation of subscore for stool frequency", "setting": "Week 2 score 2, Week 0 score 1", "value": 2},
      {"measurement": "Number of cases, cross tabulation of subscore for stool frequency", "setting": "Week 2 score 2, Week 0 score 2", "value": 15},
      {"measurement": "Number of cases, cross tabulation of subscore for stool frequency", "setting": "Week 2 score 2, Week 0 score 3", "value": 8},
      {"measurement": "Number of cases, cross tabulation of subscore for stool frequency", "setting": "Week 2 score 3, Week 0 score 0", "value": 0},
      {"measurement": "Number of cases, cross tabulation of subscore for stool frequency", "setting": "Week 2 score 3, Week 0 score 1", "value": 0},
      {"measurement": "Number of cases, cross tabulation of subscore for stool frequency", "setting": "Week 2 score 3, Week 0 score 2", "value": 0},
      {"measurement": "Number of cases, cross tabulation of subscore for stool frequency", "setting": "Week 2 score 3, Week 0 score 3", "value": 8},
      {"measurement": "Cases by subscore for stool frequency, figure in parentheses", "setting": "Week 4, score 0", "value": 11.8},
      {"measurement": "Number of cases by subscore for stool frequency", "setting": "Week 4, score 0", "value": 6},
      {"measurement": "Cases by subscore for stool frequency, figure in parentheses", "setting": "Week 4, score 1", "value": 47.1},
      {"measurement": "Number of cases by subscore for stool frequency", "setting": "Week 4, score 1", "value": 24},
      {"measurement": "Cases by subscore for stool frequency, figure in parentheses", "setting": "Week 4, score 2", "value": 25.5},
      {"measurement": "Number of cases by subscore for stool frequency", "setting": "Week 4, score 2", "value": 13},
      {"measurement": "Cases by subscore for stool frequency, figure in parentheses", "setting": "Week 4, score 3", "value": 15.7},
      {"measurement": "Number of cases by subscore for stool frequency", "setting": "Week 4, score 3", "value": 8},
      {"measurement": "Number of cases, cross tabulation of subscore for stool frequency", "setting": "Week 4 score 0, Week 0 score 0", "value": 2},
      {"measurement": "Number of cases, cross tabulation of subscore for stool frequency", "setting": "Week 4 score 0, Week 0 score 1", "value": 1},
      {"measurement": "Number of cases, cross tabulation of subscore for stool frequency", "setting": "Week 4 score 0, Week 0 score 2", "value": 3},
      {"measurement": "Number of cases, cross tabulation of subscore for stool frequency", "setting": "Week 4 score 0, Week 0 score 3", "value": 0},
      {"measurement": "Number of cases, cross tabulation of subscore for stool frequency", "setting": "Week 4 score 1, Week 0 score 0", "value": 0},
      {"measurement": "Number of cases, cross tabulation of subscore for stool frequency", "setting": "Week 4 score 1, Week 0 score 1", "value": 7},
      {"measurement": "Number of cases, cross tabulation of subscore for stool frequency", "setting": "Week 4 score 1, Week 0 score 2", "value": 12},
      {"measurement": "Number of cases, cross tabulation of subscore for stool frequency", "setting": "Week 4 score 1, Week 0 score 3", "value": 5},
      {"measurement": "Number of cases, cross tabulation of subscore for stool frequency", "setting": "Week 4 score 2, Week 0 score 0", "value": 0},
      {"measurement": "Number of cases, cross tabulation of subscore for stool frequency", "setting": "Week 4 score 2, Week 0 score 1", "value": 1},
      {"measurement": "Number of cases, cross tabulation of subscore for stool frequency", "setting": "Week 4 score 2, Week 0 score 2", "value": 6},
      {"measurement": "Number of cases, cross tabulation of subscore for stool frequency", "setting": "Week 4 score 2, Week 0 score 3", "value": 6},
      {"measurement": "Number of cases, cross tabulation of subscore for stool frequency", "setting": "Week 4 score 3, Week 0 score 0", "value": 0},
      {"measurement": "Number of cases, cross tabulation of subscore for stool frequency", "setting": "Week 4 score 3, Week 0 score 1", "value": 0},
      {"measurement": "Number of cases, cross tabulation of subscore for stool frequency", "setting": "Week 4 score 3, Week 0 score 2", "value": 0},
      {"measurement": "Number of cases, cross tabulation of subscore for stool frequency", "setting": "Week 4 score 3, Week 0 score 3", "value": 8},
      {"measurement": "Cases by subscore for stool frequency, figure in parentheses", "setting": "Week 8, score 0", "value": 21.6},
      {"measurement": "Number of cases by subscore for stool frequency", "setting": "Week 8, score 0", "value": 11},
      {"measurement": "Cases by subscore for stool frequency, figure in parentheses", "setting": "Week 8, score 1", "value": 45.1},
      {"measurement": "Number of cases by subscore for stool frequency", "setting": "Week 8, score 1", "value": 23},
      {"measurement": "Cases by subscore for stool frequency, figure in parentheses", "setting": "Week 8, score 2", "value": 17.6},
      {"measurement": "Number of cases by subscore for stool frequency", "setting": "Week 8, score 2", "value": 9},
      {"measurement": "Cases by subscore for stool frequency, figure in parentheses", "setting": "Week 8, score 3", "value": 15.7},
      {"measurement": "Number of cases by subscore for stool frequency", "setting": "Week 8, score 3", "value": 8},
      {"measurement": "Number of cases, cross tabulation of subscore for stool frequency", "setting": "Week 8 score 0, Week 0 score 0", "value": 2},
      {"measurement": "Number of cases, cross tabulation of subscore for stool frequency", "setting": "Week 8 score 0, Week 0 score 1", "value": 3},
      {"measurement": "Number of cases, cross tabulation of subscore for stool frequency", "setting": "Week 8 score 0, Week 0 score 2", "value": 4},
      {"measurement": "Number of cases, cross tabulation of subscore for stool frequency", "setting": "Week 8 score 0, Week 0 score 3", "value": 2},
      {"measurement": "Number of cases, cross tabulation of subscore for stool frequency", "setting": "Week 8 score 1, Week 0 score 0", "value": 0},
      {"measurement": "Number of cases, cross tabulation of subscore for stool frequency", "setting": "Week 8 score 1, Week 0 score 1", "value": 5},
      {"measurement": "Number of cases, cross tabulation of subscore for stool frequency", "setting": "Week 8 score 1, Week 0 score 2", "value": 11},
      {"measurement": "Number of cases, cross tabulation of subscore for stool frequency", "setting": "Week 8 score 1, Week 0 score 3", "value": 7},
      {"measurement": "Number of cases, cross tabulation of subscore for stool frequency", "setting": "Week 8 score 2, Week 0 score 0", "value": 0},
      {"measurement": "Number of cases, cross tabulation of subscore for stool frequency", "setting": "Week 8 score 2, Week 0 score 1", "value": 1},
      {"measurement": "Number of cases, cross tabulation of subscore for stool frequency", "setting": "Week 8 score 2, Week 0 score 2", "value": 5},
      {"measurement": "Number of cases, cross tabulation of subscore for stool frequency", "setting": "Week 8 score 2, Week 0 score 3", "value": 3},
      {"measurement": "Number of cases, cross tabulation of subscore for stool frequency", "setting": "Week 8 score 3, Week 0 score 0", "value": 0},
      {"measurement": "Number of cases, cross tabulation of subscore for stool frequency", "setting": "Week 8 score 3, Week 0 score 1", "value": 0},
      {"measurement": "Number of cases, cross tabulation of subscore for stool frequency", "setting": "Week 8 score 3, Week 0 score 2", "value": 1},
      {"measurement": "Number of cases, cross tabulation of subscore for stool frequency", "setting": "Week 8 score 3, Week 0 score 3", "value": 7}
    ]}
  ]
}
